SMILES strings stand for the structures. Some results are limits rather than exact numbers.

For 29 molecules, EC50 results are on record in patent US20090226398A1, “ANTI-VIRAL COMPOUNDS, COMPOSITIONS, AND METHODS OF USE” (Genelabs Technologies, Inc., priority 2008, published 2009).

The test system of this experiment is HCV replication. Nature of the experiment: Replicon Assay (Huh-lucubineo-ET cells, luciferase readout). Particulars: Hepatitis C virus; ET (Huh-lucubineo-ET) HCV replicon cell line; luciferase activity 48-72 hours after compound addition; 6 dilutions. The class given is cell-based. The method in brief:
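Huh-lucubineo-ET cells stably carrying a firefly luciferase-ubiquitin-neo/NS3-5B ET replicon (adaptive mutations E1202G, T1280I, K1846T) were plated 24 h before compound, then treated at 5 or 50 μM or six 3-fold dilutions. Luciferase read 48-72 h later; % inhibition vs no-compound control, EC50/TC50 from Hill-equation fit.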
Turning to `CC(C)CCOc1ccc(-c2ccc(Cn3cc4nc(-c5cccc(F)c5F)nc-4cn3)nn2)c(C(F)(F)F)c1` [Compound 329, 2-(2,3-Difluoro-phenyl)-5-{6-[4-(3-methyl-butoxy)-2-trifluoromethyl-phenyl]-pyridazin-3-ylmethyl}-5H-imidazo[4,5-d]pyridazine], the EC50 stood at 858 nM.
Next, `Fc1cccc(-c2nc3cnn(Cc4ccc(-c5ccc(OCCn6ccnc6)cc5C(F)(F)F)nn4)cc-3n2)c1F` [Compound 330, 2-(2,3-Difluoro-phenyl)-5-{6-[4-(2-imidazol-1-yl-ethoxy)-2-trifluoromethyl-phenyl]-pyridazin-3-ylmethyl}-5H-imidazo[4,5-d]pyridazine]: not below 50000 nM; `Fc1cccc(-c2nc3cnn(Cc4ccc(-c5ccc(-c6ccccn6)cc5C(F)(F)F)nn4)cc-3n2)c1F` [Compound 331, 2-(2,3-Difluoro-phenyl)-5-[6-(4-pyridin-2-yl-2-trifluoromethyl-phenyl)-pyridazin-3-ylmethyl]-5H-imidazo[4,5-d]pyridazine]: not below 50000 nM; `CC(C)Cc1ccc(-c2ccc(Cn3cc4nc(-c5cccc(F)c5F)nc-4cn3)nn2)c(C(F)(F)F)c1` [Compound 332, 2-(2,3-Difluoro-phenyl)-5-[6-(4-isobutyl-2-trifluoromethyl-phenyl)-pyridazin-3-ylmethyl]-5H-imidazo[4,5-d]pyridazine]: 19 nM.
Next, `CCCOc1ccc(-c2ccc(Cn3cc4nc(-c5cccc(F)c5F)nc-4cn3)cn2)c(C(F)(F)F)c1` [Compound 333, 2-(2,3-Difluoro-phenyl)-5-[6-(4-propoxy-2-trifluoromethyl-phenyl)-pyridin-3-ylmethyl]-5H-imidazo[4,5-d]pyridazine]: 10 nM.
The result for `COc1ccc(-c2ccc(Cn3cc4nc(-c5cccc(F)c5F)nc-4cn3)c(N)c2)c(C(F)(F)F)c1` [Compound 334, 4-[2-(2,3-Difluoro-phenyl)-imidazo[4,5-d]pyridazin-5-ylmethyl]-4′-methoxy-2′-trifluoromethyl-biphenyl-3-ylamine] reads 20 nM.
As for `Nc1cc(C(F)(F)F)ccc1-c1ccc(Cn2cc3nc(-c4cccc(F)c4F)nc-3cn2)cn1` [Compound 335, 2-{5-[2-(2,3-Difluoro-phenyl)-imidazo[4,5-d]pyridazin-5-ylmethyl]-pyridin-2-yl}-5-trifluoromethyl-phenylamine], the EC50 turned out to be 2390 nM.
The molecule `Cc1ccc(-c2ccc(C(F)(F)F)cc2C(F)(F)F)c(Cn2cc3nc(-c4cccc(F)c4F)nc-3cn2)n1` [Compound 336, 5-[3-(2,4-Bis-trifluoromethyl-phenyl)-6-methyl-pyridin-2-ylmethyl]-2-(2,3-difluoro-phenyl)-5H-imidazo[4,5-d]pyridazine] gave a concentration giving a half-maximal response (EC50) not below 50000 nM.
The result for `Cc1nc(Cn2cc3nc(-c4cccc(F)c4F)nc-3cn2)ccc1-c1ccc(C(F)(F)F)cc1C(F)(F)F` [Compound 337, 5-[5-(2,4-Bis-trifluoromethyl-phenyl)-6-methyl-pyridin-2-ylmethyl]-2-(2,3-difluoro-phenyl)-5H-imidazo[4,5-d]pyridazine] reads 166 nM; that for `COc1ccc(-c2ccc(Cn3cc4nc(-c5cccc(F)c5F)nc-4cn3)c[n+]2[O-])c(C(F)(F)F)c1` [Compound 338, 2-(2,3-Difluoro-phenyl)-5-[6-(4-methoxy-2-trifluoromethyl-phenyl)-1-oxy-pyridin-3-ylmethyl]-5H-imidazo[4,5-d]pyridazine], 1300 nM.
Next, `CNc1cccc(-c2nc3cnn(Cc4ccc(-c5ccc(C(F)(F)F)cc5C(F)(F)F)nc4)cc-3n2)c1F` [Compound 339, (3-{5-[6-(2,4-Bis-trifluoromethyl-phenyl)-pyridin-3-ylmethyl]-5H-imidazo[4,5-d]pyridazin-2-yl}-2-fluoro-phenyl)-methyl-amine]: 14300 nM.
Next, `N#Cc1cc(C(F)(F)F)ccc1-c1ccc(Cn2cc3nc(-c4cccc(F)c4F)nc-3cn2)cn1` [Compound 340, 2-{5-[2-(2,3-Difluoro-phenyl)-imidazo[4,5-d]pyridazin-5-ylmethyl]-pyridin-2-yl}-5-trifluoromethyl-benzonitrile]: 95 nM; `Fc1cccc(-c2nc3cnn(Cc4ccc(Oc5ccc(OC(F)(F)F)cc5)nn4)cc-3n2)c1F` [Compound 341, 2-(2,3-Difluoro-phenyl)-5-[6-(4-trifluoromethoxy-phenoxy)-pyridazin-3-ylmethyl]-5H-imidazo[4,5-d]pyridazine]: 6030 nM; `COc1ccc(-c2ccc(Cn3cc4nc(-c5cccc(F)c5F)nc-4cn3)c(C(=O)O)c2)c(C(F)(F)F)c1` [Compound 342, 4-[2-(2,3-Difluoro-phenyl)-imidazo[4,5-d]pyridazin-5-ylmethyl]-4′-methoxy-2′-trifluoromethyl-biphenyl-3-carboxylic acid]: not below 50000 nM.
The molecule `Fc1cccc(-c2nc3cnn(Cc4ccc(Oc5ccc(C(F)(F)F)cc5C(F)(F)F)cc4)cc-3n2)c1F` [Compound 343, 5-[4-(2,4-Bis-trifluoromethyl-phenoxy)-benzyl]-2-(2,3-difluoro-phenyl)-5H-imidazo[4,5-d]pyridazine] registered an EC50 of 26900 nM.
`Fc1cccc(-c2nc3cnn(Cc4ccc(-c5ccc(Br)c(C(F)(F)F)c5)cc4)cc-3n2)c1F` [Compound 344, 5-(4′-Bromo-3′-trifluoromethyl-biphenyl-4-ylmethyl)-2-(2,3-difluoro-phenyl)-5H-imidazo[4,5-d]pyridazine] showed an EC50 of 320 nM.
Next, `[O-][n+]1cc(Cn2cc3nc(-c4cccc(F)c4F)nc-3cn2)ccc1-c1ccc(C(F)(F)F)cc1C(F)(F)F` [Compound 345, 5-[6-(2,4-Bis-trifluoromethyl-phenyl)-1-oxy-pyridin-3-ylmethyl]-2-(2,3-difluoro-phenyl)-5H-imidazo[4,5-d]pyridazine]: 80 nM; `COc1ccc(-c2ccc(Cn3cc4nc(-c5cccc(F)c5F)nc-4cn3)cc2C(=O)O)c(C(F)(F)F)c1` [Compound 346, 4-[2-(2,3-Difluoro-phenyl)-imidazo[4,5-d]pyridazin-5-ylmethyl]-4′-methoxy-2′-trifluoromethyl-biphenyl-2-carboxylic acid]: not below 50000 nM.
The result for `CCCCc1ccc(-c2ccc(Cn3cc4nc(-c5cccc(F)c5F)nc-4cn3)cn2)cc1C(F)(F)F` [Compound 347, 5-[6-(4-Butyl-3-trifluoromethyl-phenyl)-pyridin-3-ylmethyl]-2-(2,3-difluoro-phenyl)-5H-imidazo[4,5-d]pyridazine] reads 2590 nM.
The result for `COc1ccc(-c2ccc(Cn3cc4nc(-c5cccc(F)c5F)nc-4cn3)c(OCCCO)c2)c(C(F)(F)F)c1` [Compound 348, 3-{4-[2-(2,3-Difluoro-phenyl)-imidazo[4,5-d]pyridazin-5-ylmethyl]-4′-methoxy-2′-trifluoromethyl-biphenyl-3-yloxy}-propan-1-ol] reads 279 nM; that for `COc1ccc(-c2ccc(Cn3cc4nc(-c5cccc(F)c5F)nc-4cn3)c(OCCCN3CCOCC3)c2)c(C(F)(F)F)c1` [Compound 349, 2-(2,3-Difluoro-phenyl)-5-[4′-methoxy-3-(3-morpholin-4-yl-propoxy)-2′-trifluoromethyl-biphenyl-4-ylmethyl]-5H-imidazo[4,5-d]pyridazine], 6260 nM; that for `Oc1ccc(-c2ccc(Cn3cc4nc(-c5cccc(F)c5F)nc-4cn3)nn2)c(C(F)(F)F)c1` [Compound 350, 4-{6-[2-(2,3-Difluoro-phenyl)-imidazo[4,5-d]pyridazin-5-ylmethyl]-pyridazin-3-yl}-3-trifluoromethyl-phenol], not below 50000 nM.
The molecule `FCCCOc1ccc(-c2ccc(Cn3cc4nc(-c5cccc(F)c5F)nc-4cn3)nn2)c(C(F)(F)F)c1` [Compound 351, 2-(2,3-Difluoro-phenyl)-5-{6-[4-(3-fluoro-propoxy)-2-trifluoromethyl-phenyl]-pyridazin-3-ylmethyl}-5H-imidazo[4,5-d]pyridazine] had an EC50 of 25 nM.
Consider `FCCOc1ccc(-c2ccc(Cn3cc4nc(-c5cccc(F)c5F)nc-4cn3)nn2)c(C(F)(F)F)c1` [Compound 352, 2-(2,3-Difluoro-phenyl)-5-{6-[4-(2-fluoro-ethoxy)-2-trifluoromethyl-phenyl]-pyridazin-3-ylmethyl}-5H-imidazo[4,5-d]pyridazine], for which a half-maximal response (EC50) required 22.8 nM.
Next, `O=S(=O)(Oc1ccc(-c2ccc(Cn3cc4nc(-c5cccc(F)c5F)nc-4cn3)nn2)c(C(F)(F)F)c1)C(F)(F)F` [Compound 353, Trifluoro-methanesulfonic acid 4-{6-[2-(2,3-difluoro-phenyl)-imidazo[4,5-d]pyridazin-5-ylmethyl]-pyridazin-3-yl}-3-trifluoromethyl-phenyl ester]: 1190 nM; `Fc1cccc(-c2nc3cnn(Cc4ccc(-c5ccc(-c6cccs6)cc5C(F)(F)F)nn4)cc-3n2)c1F` [Compound 354, 2-(2,3-Difluoro-phenyl)-5-[6-(4-thiophen-2-yl-2-trifluoromethyl-phenyl)-pyridazin-3-ylmethyl]-5H-imidazo[4,5-d]pyridazine]: 225 nM; `Fc1cccc(-c2nc3cnn(Cc4ccc(N5CCOCC5)nn4)cc-3n2)c1F` [Compound 355, 2-(2,3-Difluoro-phenyl)-5-(6-morpholin-4-yl-pyridazin-3-ylmethyl)-5H-imidazo[4,5-d]pyridazine]: not below 50000 nM.
`COc1ccc(-c2ccc(Cn3cc4nc(-c5cccc(F)c5F)nc-4cn3)cc2N)c(C(F)(F)F)c1` [Compound 356, 4-[2-(2,3-Difluoro-phenyl)-imidazo[4,5-d]pyridazin-5-ylmethyl]-4′-methoxy-2′-trifluoromethyl-biphenyl-2-ylamine]: the response was half-maximal at 100 nM (EC50).
Next, `CCCOc1ccc(-c2ccc(Cn3cc4nc(-c5cccc(F)c5F)nc-4cn3)cc2N)cc1` [Compound 357, 4-[2-(2,3-Difluoro-phenyl)-imidazo[4,5-d]pyridazin-5-ylmethyl]-4′-propoxy-biphenyl-2-ylamine]: not below 50000 nM.
